Reference: ChEMBL document CHEMBL3632492, “Substituted 2-arylquinazolinones: Design, synthesis, and evaluation of cytotoxicity and inhibition of topoisomerases” (Eur J Med Chem, 2015)
pIC50: −log10 of the molar value.

Experiments:
[1] = molecular target: T1, DNA topoisomerase 1 (Homo sapiens) (UniProt P11387); test: Potency index, ratio of compound activity to CPT activity for inhibition of recombinant human topoisomerase 1 at 100 uM
T1 sequence (whole entry): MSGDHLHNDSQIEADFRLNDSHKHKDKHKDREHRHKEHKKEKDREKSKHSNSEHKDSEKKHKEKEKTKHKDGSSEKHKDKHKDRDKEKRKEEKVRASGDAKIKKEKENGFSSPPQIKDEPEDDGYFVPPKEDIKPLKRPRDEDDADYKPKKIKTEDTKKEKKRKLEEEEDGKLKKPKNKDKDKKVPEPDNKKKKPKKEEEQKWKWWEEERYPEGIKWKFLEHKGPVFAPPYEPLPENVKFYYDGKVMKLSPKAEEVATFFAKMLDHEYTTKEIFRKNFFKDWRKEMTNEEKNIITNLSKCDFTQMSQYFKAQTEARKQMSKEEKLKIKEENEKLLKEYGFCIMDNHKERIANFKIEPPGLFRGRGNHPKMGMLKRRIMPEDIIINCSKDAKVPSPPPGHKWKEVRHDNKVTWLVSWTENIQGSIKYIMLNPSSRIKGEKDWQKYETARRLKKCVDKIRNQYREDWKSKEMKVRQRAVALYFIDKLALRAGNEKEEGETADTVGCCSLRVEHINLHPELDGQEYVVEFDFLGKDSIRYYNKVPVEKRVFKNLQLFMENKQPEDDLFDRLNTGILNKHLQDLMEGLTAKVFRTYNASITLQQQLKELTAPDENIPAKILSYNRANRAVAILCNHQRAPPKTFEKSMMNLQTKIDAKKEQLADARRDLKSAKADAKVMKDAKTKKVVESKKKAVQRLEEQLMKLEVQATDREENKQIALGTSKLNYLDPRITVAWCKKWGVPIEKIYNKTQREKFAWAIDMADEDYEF

[2] = molecular target: T1, DNA topoisomerase 1 (Homo sapiens); test: Inhibition of recombinant human topoisomerase 1 assessed as relaxation of supercoiled plasmid DNA pBR322 at 100 uM incubated for 30 mins by agarose gel electrophoresis
[3] = molecular target: T1, DNA topoisomerase 1 (Homo sapiens); test: Inhibition of recombinant human topoisomerase 1 assessed as relaxation of supercoiled plasmid DNA pBR322 at 20 uM incubated for 30 mins by agarose gel electrophoresis
[4] = molecular target: DNA topoisomerase 2-alpha (Homo sapiens) (UniProt P11388); test: Inhibition of recombinant human topoisomerase 2alpha assessed as relaxation of supercoiled plasmid DNA pBR322 at 100 uM incubated for 30 mins by agarose gel electrophoresis
[5] = molecular target: T1, DNA topoisomerase 1 (Homo sapiens); test: Potency index, ratio of compound activity to CPT activity for inhibition of recombinant human topoisomerase 1 at 20 uM
[6] = system: HCT-15; test: Cytotoxicity against human HCT15 cells measured after 2 days by MTT assay; format: functional, cell-based; conditions: HCT-15, 48 h
[7] = system: T47D; test: Cytotoxicity against human T47D cells measured after 2 days by MTT assay; format: functional, cell-based; conditions: 48 h
[8] = system: HeLa; test: Cytotoxicity against human HeLa cells measured after 2 days by MTT assay; format: functional, cell-based; conditions: 48 h
[9] = molecular target: DNA topoisomerase 2-alpha (Homo sapiens) (UniProt P11388); test: Potency index, ratio of compound activity to etoposide activity for inhibition of recombinant human topoisomerase 2alpha at 100 uM
[10] = molecular target: DNA topoisomerase 2-alpha (Homo sapiens) (UniProt P11388); test: Inhibition of recombinant human topoisomerase 2alpha assessed as relaxation of supercoiled plasmid DNA pBR322 at 20 uM incubated for 30 mins by agarose gel electrophoresis
[11] = molecular target: DNA topoisomerase 2-alpha (Homo sapiens) (UniProt P11388); test: Potency index, ratio of compound activity to etoposide activity for inhibition of recombinant human topoisomerase 2alpha at 20 uM

DNA topoisomerase 2-alpha (Homo sapiens), sequence (P11388 whole entry): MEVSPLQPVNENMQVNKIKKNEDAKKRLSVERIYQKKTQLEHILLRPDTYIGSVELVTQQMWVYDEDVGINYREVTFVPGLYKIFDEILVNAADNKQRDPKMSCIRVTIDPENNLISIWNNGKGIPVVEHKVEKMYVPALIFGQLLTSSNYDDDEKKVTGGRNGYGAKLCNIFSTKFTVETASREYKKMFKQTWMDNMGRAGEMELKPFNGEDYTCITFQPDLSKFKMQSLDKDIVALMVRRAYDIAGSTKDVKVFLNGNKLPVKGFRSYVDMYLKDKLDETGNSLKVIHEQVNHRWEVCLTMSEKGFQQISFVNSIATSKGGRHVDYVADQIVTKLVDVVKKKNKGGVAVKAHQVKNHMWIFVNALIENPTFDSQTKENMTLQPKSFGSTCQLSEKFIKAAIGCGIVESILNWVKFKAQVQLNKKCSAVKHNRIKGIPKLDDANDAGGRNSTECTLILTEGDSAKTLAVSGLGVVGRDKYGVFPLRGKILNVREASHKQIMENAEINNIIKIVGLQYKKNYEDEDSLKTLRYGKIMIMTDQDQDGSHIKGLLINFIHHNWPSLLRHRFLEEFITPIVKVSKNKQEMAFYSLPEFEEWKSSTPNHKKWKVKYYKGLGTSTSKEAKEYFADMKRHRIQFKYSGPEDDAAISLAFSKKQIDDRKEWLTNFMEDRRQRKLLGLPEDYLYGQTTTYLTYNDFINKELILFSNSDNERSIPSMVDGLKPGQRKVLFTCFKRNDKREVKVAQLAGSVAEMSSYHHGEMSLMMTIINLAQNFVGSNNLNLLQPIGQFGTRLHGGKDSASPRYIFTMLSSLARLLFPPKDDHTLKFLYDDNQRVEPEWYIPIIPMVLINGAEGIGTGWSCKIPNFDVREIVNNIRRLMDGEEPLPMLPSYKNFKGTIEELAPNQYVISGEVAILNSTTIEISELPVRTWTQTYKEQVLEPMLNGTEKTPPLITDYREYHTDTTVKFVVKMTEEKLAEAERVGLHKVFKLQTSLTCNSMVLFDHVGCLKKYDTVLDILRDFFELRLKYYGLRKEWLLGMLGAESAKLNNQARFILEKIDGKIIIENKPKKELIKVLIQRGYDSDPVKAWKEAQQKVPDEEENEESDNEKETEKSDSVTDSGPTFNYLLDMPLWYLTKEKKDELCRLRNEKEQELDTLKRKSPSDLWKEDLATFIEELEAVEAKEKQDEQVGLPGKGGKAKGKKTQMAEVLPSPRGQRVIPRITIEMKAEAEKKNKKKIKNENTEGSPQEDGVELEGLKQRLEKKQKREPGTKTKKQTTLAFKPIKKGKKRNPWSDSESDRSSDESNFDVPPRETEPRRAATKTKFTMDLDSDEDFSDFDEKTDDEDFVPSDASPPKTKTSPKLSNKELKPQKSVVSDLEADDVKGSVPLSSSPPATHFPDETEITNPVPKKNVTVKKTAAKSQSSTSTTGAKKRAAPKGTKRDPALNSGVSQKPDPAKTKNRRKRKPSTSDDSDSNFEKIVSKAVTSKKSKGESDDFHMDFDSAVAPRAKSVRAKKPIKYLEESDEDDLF

Structure (SMILES)	Ratio [1]	inhibition [2]	inhibition [3]	inhibition [4]	Ratio [5]	pIC50 [6]	pIC50 [7]	pIC50 [8]	Ratio [9]	inhibition [10]	Ratio [11]
Cc1ccc2c(=O)[nH]c(-c3cccc(C(F)(F)F)c3)nc2c1	1.29	100%	93.6%	0%	3.04	< 4.30	< 4.30	< 4.30			
CC[C@@]1(O)C(=O)OCc2c1cc1n(c2=O)Cc2cc3ccccc3nc2-1 [CAMPTOTHECIN]						5.22	5.79	5.80			
Cc1cccc(-c2nc3ccc(C)cc3c(=O)[nH]2)c1	1.06	75.7%	12.7%	4.6%	0.39	< 4.30	< 4.30	< 4.30	0.05		
Cc1ccc2c(=O)[nH]c(-c3cccc(F)c3)nc2c1	0.93	77.5%	4.3%	9.6%	0.16	4.84	< 4.30	< 4.30	0.12		
Cc1ccc2nc(-c3ccccc3C(F)(F)F)[nH]c(=O)c2c1	1.01	72%	21.1%	7.2%	0.65	< 4.30	< 4.30	5.61	0.09	0%	
Cc1ccc2c(=O)[nH]c(-c3ccccc3OC(F)(F)F)nc2c1	1.29	100%	100%	0%	3.25	4.80	< 4.30	4.74			
COc1cccc(-c2nc3ccc(N4CCCCC4)cc3c(=O)[nH]2)c1OC	0.97	80.9%	0%	0%		4.61	4.98	5.09			
Cc1ccc2nc(-c3ccccc3F)[nH]c(=O)c2c1	0.84	67.9%	36.3%	0%	2.11	< 4.30	< 4.30	< 4.30			
Cc1ccc2nc(-c3cccc(C(F)(F)F)c3)[nH]c(=O)c2c1	0.64	45.8%	4.2%	11.2%	0.13	< 4.30	< 4.30	< 4.30	0.14	0%	
Cc1cccc(-c2nc3cc(C)ccc3c(=O)[nH]2)c1	1.29	100%	56.3%	40.4%	1.83	4.68	< 4.30	4.95	0.5	24.9%	0.5
COc1cccc(-c2nc3cc(C)ccc3c(=O)[nH]2)c1	1.29	100%	80%	43.6%	2.6	5.31	< 4.30	5.05	0.54	25.2%	0.5
COc1cccc(-c2nc3ccc(C)cc3c(=O)[nH]2)c1	1.01	71.8%	0%	65.2%		4.50	< 4.30	< 4.30	0.81	19%	0.38
CCN(CC)c1ccc2nc(-c3ccccc3N(C)C)[nH]c(=O)c2c1	0.99	82.1%	0%	0%		5.38	5.66	7.15			
CCN(CC)c1ccc2nc(-c3cccc4ccccc34)[nH]c(=O)c2c1	1.17	90.4%	25.5%	0%	0.83	5.49	5.57	8.40			
CCN(CC)c1ccc2nc(-c3ccccc3OC(F)(F)F)[nH]c(=O)c2c1	0.98	81.2%	0%	0%		5.77	5.78	7.40			
Cc1ccc2nc(-c3ccccc3OC(F)(F)F)[nH]c(=O)c2c1	0.83	66.9%	0%	5.47%		5.55	< 4.30	6.07	0.06		
Cc1ccc2c(=O)[nH]c(-c3cccc4ccccc34)nc2c1	1.29	100%	60.1%	0%	1.95	4.63	< 4.30	< 4.30			
Cc1ccc2c(=O)[nH]c(-c3ccccc3N(C)C)nc2c1	0.19	82.1%	5.3%	28.1%	0.19	4.89	5.35	4.36	0.35	41.9%	0.84
COc1cccc2c1C(=O)c1c(O)c3c(c(O)c1C2=O)C[C@@](O)(C(=O)CO)C[C@@H]3O[C@H]1C[C@H](N)[C@H](O)[C@H](C)O1 [DOXORUBICIN]						5.48	5.72	6.28			
Cc1ccc2nc(-c3ccccc3N(C)C)[nH]c(=O)c2c1	1.03	82.9%	21.1%	7.2%	1.22	< 4.30	4.57	4.85	0.09		
CN(C)c1ccc2nc(-c3cccc4ccccc34)[nH]c(=O)c2c1	1.24	100%	2.4%	0%	0.14	6.34	< 4.30	7.30			
CCN(CC)c1ccc2nc(-c3ccccc3C(F)(F)F)[nH]c(=O)c2c1	0.98	81.7%	13.3%	9.4%	0.49	6.55	5.59	7.00	0.11		
O=c1[nH]c(-c2cccc3ccccc23)nc2ccc(N3CCCCC3)cc12	1.24	100%	33.4%	0%	1.94	5.65	< 4.30	6.48			
COc1cc([C@@H]2c3cc4c(cc3[C@@H](O[C@@H]3O[C@@H]5CO[C@@H](C)O[C@H]5[C@H](O)[C@H]3O)[C@H]3COC(=O)[C@H]23)OCO4)cc(OC)c1O [ETOPOSIDE]						5.26	5.03	5.12			
Cc1ccc2nc(-c3ccccc3C)[nH]c(=O)c2c1		0%		0%		4.93	< 4.30	5.34			
Cc1ccc2nc(-c3cccc4ccccc34)[nH]c(=O)c2c1	0.05	4.1%		5.5%		< 4.30	< 4.30	5.27	0.06		
Cc1ccc2nc(-c3cccc(F)c3)[nH]c(=O)c2c1	1.03	82.9%	0.2%	0%	0.01	< 4.30	< 4.30	< 4.30			
Cc1ccc2c(=O)[nH]c(-c3cccc(OC(F)(F)F)c3)nc2c1	0.93	77.2%	0%	0%		< 4.30	< 4.30	< 4.30			
Cc1ccc2nc(-c3cccc(OC(F)(F)F)c3)[nH]c(=O)c2c1	1.39	98.6%	0%	0%		< 4.30	< 4.30	< 4.30			
Cc1ccc2c(=O)[nH]c(-c3ccccc3F)nc2c1	0.98	81.2%	0%	0%		4.99	< 4.30	6.08			
